# Laboratory results as given in patent US12371428B2 (Exelixis, Inc., priority 2019, dated 2025).
# Where two headings read alike, the source gives them in different places.
# Assays:
# Type in all cases: cell-based
# [1] = molecular target: Mer (phospho-Mer, MERTK-transfected 293A cells) (Homo sapiens (Human), UniProt Q12866); assay: Mer autophosphorylation ELISA in transient transfected 293A cells (Example H); conditions: cellular activity
# Summary of the method: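 MERTK-transfected 293A; 8-pt dose, 1 h, serum-free, 0.3% DMSO. Cold lysis with orthovanadate and protease/phosphatase inhibitors. Phospho-Mer by DuoSet IC ELISA vs phospho-Mer standard. IC50: 4-PL fit; DMSO = 100%, reference inhibitor = 0%.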
# [2] = molecular target: Met (phospho-Met, HGF-stimulated PC-3 prostate cancer cells) (Homo sapiens (Human), UniProt P08581); assay: Met autophosphorylation ELISA in PC-3 cells (Example F); conditions: cellular activity, read-out: c-Met IC50
# Summary of the method: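 Sandwich ELISA for phospho-Met (panTyr) in PC-3 lysates. Cells starved 3 h serum-free, compound 1 h (8-pt curve, 0.3% DMSO), HGF 100 ng/mL 10 min. 100% = HGF + DMSO; 0% = HGF + reference inhibitor. IC50 by 4-parameter fit.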
# [3] = molecular target: AXL (phospho-AXL, Gas6-stimulated A-172 glioblastoma cells) (Homo sapiens (Human), UniProt P30530); assay: AXL autophosphorylation ELISA in A-172 cells (Example E); conditions: cellular activity, read-out: Axl IC50
# Summary of the method: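 Phospho-AXL was measured by ELISA in lysates of Gas6-stimulated A-172 cells, starved 24 h in serum-free medium and exposed 1 h to an 8-point compound dilution at 0.3% DMSO.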
# [4] = molecular target: KDR (phospho-KDR, VEGF165-stimulated HUVEC cells) (Homo sapiens (Human), UniProt P35968); assay: KDR autophosphorylation ELISA in HUVEC cells (Example G); conditions: cellular activity
# Summary of the method: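 Read-out: phospho-KDR in cell lysates by DuoSet IC ELISA, normalised between VEGF-stimulated DMSO wells (100%) and unstimulated wells (0%). Human endothelial cells were starved overnight in serum-free medium, exposed to compound for 1 h, and then pulsed with 100 ng/mL VEGF165 for 5 min.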
# [5] = Mer autophosphorylation ELISA in transient transfected 293A cells
# [6] = Met autophosphorylation ELISA in PC-3 cells
# [7] = AXL autophosphorylation ELISA in A-172 cells
# [8] = KDR autophosphorylation ELISA in HUVEC cells
# Chain of Mer (phospho-Mer, MERTK-transfected 293A cells) (Q12866 21-999): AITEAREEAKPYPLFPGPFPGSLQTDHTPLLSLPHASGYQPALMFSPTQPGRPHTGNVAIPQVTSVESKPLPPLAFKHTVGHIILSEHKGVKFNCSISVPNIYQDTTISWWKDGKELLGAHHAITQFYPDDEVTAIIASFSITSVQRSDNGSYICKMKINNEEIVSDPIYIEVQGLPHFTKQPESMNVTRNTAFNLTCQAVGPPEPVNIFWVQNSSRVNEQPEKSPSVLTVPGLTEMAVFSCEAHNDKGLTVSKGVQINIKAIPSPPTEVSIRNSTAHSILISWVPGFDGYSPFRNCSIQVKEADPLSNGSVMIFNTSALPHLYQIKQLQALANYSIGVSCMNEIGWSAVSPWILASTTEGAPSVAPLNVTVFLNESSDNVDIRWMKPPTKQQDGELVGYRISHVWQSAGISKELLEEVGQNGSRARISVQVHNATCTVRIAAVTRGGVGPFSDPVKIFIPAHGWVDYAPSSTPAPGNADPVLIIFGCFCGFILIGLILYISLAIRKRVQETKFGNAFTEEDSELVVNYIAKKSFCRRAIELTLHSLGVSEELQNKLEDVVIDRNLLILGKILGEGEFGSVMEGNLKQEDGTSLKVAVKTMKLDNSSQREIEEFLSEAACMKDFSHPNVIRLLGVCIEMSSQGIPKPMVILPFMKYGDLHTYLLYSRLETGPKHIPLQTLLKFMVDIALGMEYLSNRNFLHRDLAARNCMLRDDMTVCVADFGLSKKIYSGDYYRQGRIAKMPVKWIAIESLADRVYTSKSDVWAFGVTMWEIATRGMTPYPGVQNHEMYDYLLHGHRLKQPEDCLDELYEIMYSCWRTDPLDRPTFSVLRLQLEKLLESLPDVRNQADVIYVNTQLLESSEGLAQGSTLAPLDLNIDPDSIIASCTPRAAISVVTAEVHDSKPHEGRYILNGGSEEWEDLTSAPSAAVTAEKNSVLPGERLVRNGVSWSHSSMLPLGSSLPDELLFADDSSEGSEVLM
# Chain of AXL (phospho-AXL, Gas6-stimulated A-172 glioblastoma cells) (P30530 26-894): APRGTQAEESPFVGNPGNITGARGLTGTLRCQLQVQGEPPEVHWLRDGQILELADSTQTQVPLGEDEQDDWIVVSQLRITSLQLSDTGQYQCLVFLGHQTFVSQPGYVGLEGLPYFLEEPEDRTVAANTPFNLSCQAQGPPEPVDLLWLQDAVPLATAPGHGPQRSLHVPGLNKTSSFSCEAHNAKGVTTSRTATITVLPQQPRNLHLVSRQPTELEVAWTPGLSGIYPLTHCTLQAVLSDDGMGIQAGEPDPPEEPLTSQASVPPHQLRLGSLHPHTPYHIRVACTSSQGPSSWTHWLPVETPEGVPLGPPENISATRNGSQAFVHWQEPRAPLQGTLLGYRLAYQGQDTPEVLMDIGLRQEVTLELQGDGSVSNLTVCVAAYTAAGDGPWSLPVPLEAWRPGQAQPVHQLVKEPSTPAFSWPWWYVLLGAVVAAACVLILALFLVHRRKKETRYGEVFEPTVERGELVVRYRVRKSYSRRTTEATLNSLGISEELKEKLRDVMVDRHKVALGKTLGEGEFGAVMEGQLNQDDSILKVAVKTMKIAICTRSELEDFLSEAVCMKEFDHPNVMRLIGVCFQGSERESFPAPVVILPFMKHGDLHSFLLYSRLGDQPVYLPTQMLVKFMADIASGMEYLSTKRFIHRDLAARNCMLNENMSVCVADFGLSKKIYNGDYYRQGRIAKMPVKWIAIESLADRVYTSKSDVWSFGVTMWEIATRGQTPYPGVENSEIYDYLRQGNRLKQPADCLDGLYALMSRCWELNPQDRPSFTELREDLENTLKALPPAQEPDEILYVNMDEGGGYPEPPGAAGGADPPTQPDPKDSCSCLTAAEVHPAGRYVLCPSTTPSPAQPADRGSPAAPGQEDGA
# Chain of Met (phospho-Met, HGF-stimulated PC-3 prostate cancer cells) (P08581 25-1390): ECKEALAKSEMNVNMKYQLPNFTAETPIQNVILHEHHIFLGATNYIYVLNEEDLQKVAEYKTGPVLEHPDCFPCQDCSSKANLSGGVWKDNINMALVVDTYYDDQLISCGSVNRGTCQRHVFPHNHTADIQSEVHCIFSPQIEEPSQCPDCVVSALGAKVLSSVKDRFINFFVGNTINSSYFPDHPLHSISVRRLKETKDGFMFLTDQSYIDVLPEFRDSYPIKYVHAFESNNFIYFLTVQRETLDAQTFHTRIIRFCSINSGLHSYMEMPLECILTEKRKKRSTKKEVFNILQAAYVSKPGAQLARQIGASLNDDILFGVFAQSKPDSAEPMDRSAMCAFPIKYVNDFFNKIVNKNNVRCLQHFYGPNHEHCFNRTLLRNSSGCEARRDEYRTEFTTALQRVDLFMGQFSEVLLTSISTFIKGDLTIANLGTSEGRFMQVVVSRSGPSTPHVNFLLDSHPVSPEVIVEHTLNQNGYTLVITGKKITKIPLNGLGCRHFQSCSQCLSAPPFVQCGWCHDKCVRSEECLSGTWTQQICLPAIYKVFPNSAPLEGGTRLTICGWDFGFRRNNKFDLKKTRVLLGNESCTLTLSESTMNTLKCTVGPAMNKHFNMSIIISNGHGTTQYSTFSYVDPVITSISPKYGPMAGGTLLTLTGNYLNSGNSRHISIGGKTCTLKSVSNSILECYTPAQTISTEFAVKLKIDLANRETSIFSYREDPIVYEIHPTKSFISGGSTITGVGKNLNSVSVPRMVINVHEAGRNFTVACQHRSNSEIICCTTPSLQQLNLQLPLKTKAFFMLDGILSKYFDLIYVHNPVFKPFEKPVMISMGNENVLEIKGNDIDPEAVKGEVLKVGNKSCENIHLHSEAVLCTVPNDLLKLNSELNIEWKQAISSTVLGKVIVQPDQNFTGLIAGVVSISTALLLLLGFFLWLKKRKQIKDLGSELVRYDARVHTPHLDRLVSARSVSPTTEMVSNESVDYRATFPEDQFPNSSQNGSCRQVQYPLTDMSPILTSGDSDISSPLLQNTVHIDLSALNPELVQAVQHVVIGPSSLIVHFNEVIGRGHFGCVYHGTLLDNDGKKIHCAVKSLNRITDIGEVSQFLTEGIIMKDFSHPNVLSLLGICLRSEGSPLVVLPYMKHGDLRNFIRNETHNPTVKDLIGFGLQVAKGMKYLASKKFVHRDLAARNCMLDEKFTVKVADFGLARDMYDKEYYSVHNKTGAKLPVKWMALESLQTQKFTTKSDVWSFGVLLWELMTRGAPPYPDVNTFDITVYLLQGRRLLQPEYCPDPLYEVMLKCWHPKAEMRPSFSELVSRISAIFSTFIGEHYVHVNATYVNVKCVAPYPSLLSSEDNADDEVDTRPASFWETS
# Chain of KDR (phospho-KDR, VEGF165-stimulated HUVEC cells) (P35968 20-1356): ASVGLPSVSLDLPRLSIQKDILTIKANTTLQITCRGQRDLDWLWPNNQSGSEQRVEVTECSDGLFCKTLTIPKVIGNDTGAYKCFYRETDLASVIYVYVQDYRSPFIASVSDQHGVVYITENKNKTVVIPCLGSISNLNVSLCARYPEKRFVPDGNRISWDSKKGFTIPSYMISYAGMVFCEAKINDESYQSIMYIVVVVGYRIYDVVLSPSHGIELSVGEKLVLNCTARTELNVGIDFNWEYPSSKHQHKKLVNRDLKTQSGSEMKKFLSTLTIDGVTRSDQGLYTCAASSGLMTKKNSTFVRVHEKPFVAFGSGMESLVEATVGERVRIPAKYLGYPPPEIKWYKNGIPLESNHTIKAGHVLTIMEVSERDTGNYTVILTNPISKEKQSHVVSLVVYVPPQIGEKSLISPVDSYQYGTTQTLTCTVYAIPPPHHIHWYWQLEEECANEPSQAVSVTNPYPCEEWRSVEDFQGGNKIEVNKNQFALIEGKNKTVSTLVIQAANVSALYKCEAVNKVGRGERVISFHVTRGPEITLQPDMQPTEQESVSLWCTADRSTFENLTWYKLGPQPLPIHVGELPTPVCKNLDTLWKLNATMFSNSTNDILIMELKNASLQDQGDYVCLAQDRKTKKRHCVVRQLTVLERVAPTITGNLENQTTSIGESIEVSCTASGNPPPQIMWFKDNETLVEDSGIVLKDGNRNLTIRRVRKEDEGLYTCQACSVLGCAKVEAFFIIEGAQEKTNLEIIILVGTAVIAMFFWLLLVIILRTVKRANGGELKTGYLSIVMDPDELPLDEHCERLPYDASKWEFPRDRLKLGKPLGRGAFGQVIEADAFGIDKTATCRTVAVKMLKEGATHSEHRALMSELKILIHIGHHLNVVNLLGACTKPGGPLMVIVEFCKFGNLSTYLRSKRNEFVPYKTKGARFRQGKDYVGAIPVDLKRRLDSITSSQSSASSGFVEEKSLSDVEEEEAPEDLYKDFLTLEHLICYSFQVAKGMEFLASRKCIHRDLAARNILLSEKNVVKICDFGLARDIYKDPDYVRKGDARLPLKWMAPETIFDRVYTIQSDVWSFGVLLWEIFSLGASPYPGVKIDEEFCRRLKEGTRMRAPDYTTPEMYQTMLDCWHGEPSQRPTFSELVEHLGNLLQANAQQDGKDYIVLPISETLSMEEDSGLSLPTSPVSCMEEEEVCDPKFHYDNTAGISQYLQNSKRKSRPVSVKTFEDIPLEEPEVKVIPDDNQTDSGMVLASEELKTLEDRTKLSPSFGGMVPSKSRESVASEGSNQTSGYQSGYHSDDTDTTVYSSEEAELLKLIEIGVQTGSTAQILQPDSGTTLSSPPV
"IC50 [1, 5] [µM]","IC50 [2, 6] [µM]","IC50 [3, 7] [µM]","IC50 [4, 8] [µM]",IC50 ([1]; transfected 293A cells) [µM],IC50 ([2]; PC-3 cells) [µM],IC50 ([3]; A-172 cells) [µM],IC50 ([4]; HUVEC cells) [µM],SMILES
< 0.1,< 0.1,< 0.1,< 0.1,,,,,"COc1cnc2c(Oc3ccc(NC(=O)c4c(C)nc(C)c(-c5ccc(F)c(C)c5)c4O)cc3F)ccnc2c1 [Compound 689, N-[3-fluoro-4-[(7-methoxy-1,5-naphthyridin-4-yl)oxy]phenyl]-5-(4-fluoro-3-methylphenyl)-4-hydroxy-2,6-dimethylpyridine-3-carboxamide]"
< 0.1,< 0.1,< 0.1,0.1 to 0.3,,,,,"COc1cnc2c(Oc3ccc(NC(=O)c4c(C)c(F)c(C)n(-c5ccc(F)cc5)c4=O)cc3F)ccnc2c1 [Compound 326, 5-Fluoro-N-[3-fluoro-4-[(7-methoxy-1,5-naphthyridin-4-yl)oxy]phenyl]-1-(4-fluorophenyl)-4,6-dimethyl-2-oxopyridine-3-carboxamide]"
< 0.1,< 0.1,< 0.1,< 0.1,,,,,"COc1cnc2c(Oc3ccc(NC(=O)c4c(C)c(C)c(C)n(-c5ccc(F)cc5)c4=O)cc3F)ccnc2c1 [Compound 316, N-[3-Fluoro-4-[(7-methoxy-1,5-naphthyridin-4-yl)oxy]phenyl]-1-(4-fluorophenyl)-4,5,6-trimethyl-2-oxopyridine-3-carboxamide]"
< 0.1,< 0.1,< 0.1,< 0.1,,,,,"COc1ccc2nccc(Oc3ccc(NC(=O)c4nnc(C)c(-c5ccc(F)cc5)c4OC)cc3F)c2n1 [Compound 538, N-[3-fluoro-4-[(6-methoxy-1,5-naphthyridin-4-yl)oxy]phenyl]-5-(4-fluorophenyl)-4-methoxy-6-methylpyridazine-3-carboxamide]"
< 0.1,< 0.1,< 0.1,< 0.1,,,,,"COCc1nc(C)c(-c2ccc(F)cc2)c(O)c1C(=O)Nc1ccc(Oc2ccnc3cnc(Cl)cc23)c(F)c1 [Compound 502, N-[4-[(6-Chloro-1,7-naphthyridin-4-yl)oxy]-3-fluorophenyl]-5-(4-fluorophenyl)-4-hydroxy-2-(methoxymethyl)-6-methylpyridine-3-carboxamide]"
< 0.1,< 0.1,< 0.1,< 0.1,,,,,"COc1cc2nccc(Oc3ccc(NC(=O)c4c(C)nc(C)c(-c5ccc(F)cc5C)c4O)cc3F)c2nc1Cl [Compound 736, N-[4-[(6-chloro-7-methoxy-1,5-naphthyridin-4-yl)oxy]-3-fluorophenyl]-5-(4-fluoro-2-methylphenyl)-4-hydroxy-2,6-dimethylpyridine-3-carboxamide]"
< 0.1,< 0.1,< 0.1,0.1 to 0.3,,,,,"COc1cnc2c(Oc3ccc(NC(=O)c4c(C)c(Br)c(C)n(-c5ccc(F)cc5)c4=O)cc3)ccnc2c1 [Compound 312, 5-Bromo-1-(4-fluorophenyl)-N-[4-[(7-methoxy-1,5-naphthyridin-4-yl)oxy]phenyl]-4,6-dimethyl-2-oxopyridine-3-carboxamide]"
< 0.1,< 0.1,< 0.1,< 0.1,,,,,"COc1cnc2c(Oc3c(F)cc(NC(=O)c4c(C)nc(C)c(-c5ccc(F)cc5C)c4O)cc3F)ccnc2c1 [Compound 767, N-[3,5-difluoro-4-[(7-methoxy-1,5-naphthyridin-4-yl)oxy]phenyl]-5-(4-fluoro-2-methylphenyl)-4-hydroxy-2,6-dimethylpyridine-3-carboxamide]"
< 0.1,< 0.1,< 0.1,< 0.1,,,,,"COCc1nc(C)c(-c2ccc(F)cc2)c(O)c1C(=O)Nc1ccc(Oc2ccnc3cc(C)c(OC)nc23)c(F)c1 [Compound 469, N-[3-fluoro-4-[(6-methoxy-7-methyl-1,5-naphthyridin-4-yl)oxy]phenyl]-5-(4-fluorophenyl)-4-hydroxy-2-(methoxymethyl)-6-methylpyridine-3-carboxamide]"
< 0.1,< 0.1,< 0.1,< 0.1,,,,,"COc1cnc2c(Oc3ccc(NC(=O)c4c(C)nc(C)c(-c5ccc(F)c(OC)c5)c4O)cc3F)ccnc2c1 [Compound 688, N-[3-fluoro-4-[(7-methoxy-1,5-naphthyridin-4-yl)oxy]phenyl]-5-(4-fluoro-3-methoxyphenyl)-4-hydroxy-2,6-dimethylpyridine-3-carboxamide]"
< 0.1,< 0.1,< 0.1,< 0.1,,,,,"COCCOc1nc2c(Oc3ccc(NC(=O)c4c(C)nc(C)c(-c5ccc(F)cc5)c4O)cc3F)ccnc2cc1OC [Compound 207, N-[3-Fluoro-4-[[7-methoxy-6-(2-methoxyethoxy)-1,5-naphthyridin-4-yl]oxy]phenyl]-5-(4-fluorophenyl)-4-hydroxy-2,6-dimethylpyridine-3-carboxamide]"
< 0.1,< 0.1,< 0.1,< 0.1,,,,,"C=Cc1c(C)c(C(=O)Nc2ccc(Oc3ccnc4cc(OC)c(OC)nc34)c(F)c2)c(=O)n(-c2ccc(F)cc2)c1C [Compound 327, N-[4-[(6,7-Dimethoxy-1,5-naphthyridin-4-yl)oxy]-3-fluorophenyl]-5-ethenyl-1-(4-fluorophenyl)-4,6-dimethyl-2-oxopyridine-3-carboxamide]"
< 0.1,0.1 to 0.3,> 0.3,< 0.1,,,,,"COc1ccc(-c2c(C)ncc(C(=O)Nc3ccc(Oc4ccnc5cc(OC)cnc45)c(F)c3)c2O)c(OC)c1 [Compound 696, 5-(2,4-dimethoxyphenyl)-N-[3-fluoro-4-[(7-methoxy-1,5-naphthyridin-4-yl)oxy]phenyl]-4-hydroxy-6-methylpyridine-3-carboxamide]"
< 0.1,< 0.1,< 0.1,< 0.1,,,,,"COCCOc1nc2c(Oc3ccc(NC(=O)c4c(C)nc(C)c(-c5ccc(F)cc5C)c4O)cc3F)ccnc2cc1OC [Compound 208, N-[3-Fluoro-4-[[7-methoxy-6-(2-methoxyethoxy)-1,5-naphthyridin-4-yl]oxy]phenyl]-5-(4-fluoro-2-methylphenyl)-4-hydroxy-2,6-dimethylpyridine-3-carboxamide]"
< 0.1,< 0.1,< 0.1,0.1 to 0.3,,,,,"COc1cc2nccc(Oc3ccc(NC(=O)c4cn5c(c(-c6ccc(F)cc6)c4=O)COCC5)cc3F)c2nc1OC [Compound 564, N-[4-[(6,7-Dimethoxy-1,5-naphthyridin-4-yl)oxy]-3-fluorophenyl]-9-(4-fluorophenyl)-8-oxo-3,4-dihydro-1H-pyrido[2,1-c][1,4]oxazine-7-carboxamide]"
< 0.1,< 0.1,< 0.1,< 0.1,,,,,"COc1cc2nccc(Oc3cc(F)c(NC(=O)c4c(C)nc(C)c(-c5ccc(F)cc5C)c4O)cc3F)c2nc1Cl [Compound 737, N-[4-[(6-chloro-7-methoxy-1,5-naphthyridin-4-yl)oxy]-2,5-difluorophenyl]-5-(4-fluoro-2-methylphenyl)-4-hydroxy-2,6-dimethylpyridine-3-carboxamide]"
,,,,< 0.1,< 0.1,< 0.1,> 0.3,"COc1cc2nccc(Oc3ccc(NC(=O)c4c(C)n(CC(F)F)cc(-c5ccc(F)c(C)c5)c4=O)cc3F)c2nc1OC [Compound 812, 1-(2,2-difluoroethyl)-N-[4-[(6,7-dimethoxy-1,5-naphthyridin-4-yl)oxy]-3-fluorophenyl]-5-(4-fluoro-3-methylphenyl)-2-methyl-4-oxopyridine-3-carboxamide]"
< 0.1,< 0.1,< 0.1,> 0.3,,,,,"COc1cc2nccc(Oc3ccc(NC(=O)c4cc(C(C)=O)c(C)n(-c5ccc(F)cc5)c4=O)cc3)c2nc1OC [Compound 659, 5-acetyl-N-[4-[(6,7-dimethoxy-1,5-naphthyridin-4-yl)oxy]phenyl]-1-(4-fluorophenyl)-6-methyl-2-oxopyridine-3-carboxamide]"
< 0.1,< 0.1,< 0.1,> 0.3,,,,,"C=C(C)c1cnc2c(Oc3ccc(NC(=O)c4nn(C)c(C)c(-c5ccc(F)cc5)c4=O)cc3F)ccnc2c1 [Compound 477, 5-(4-fluorophenyl)-N-[3-fluoro-4-[(7-prop-1-en-2-yl-1,5-naphthyridin-4-yl)oxy]phenyl]-1,6-dimethyl-4-oxopyridazine-3-carboxamide]"
< 0.1,< 0.1,< 0.1,0.1 to 0.3,,,,,"C=Cc1c(C)c(C(=O)Nc2ccc(Oc3ccnc4cc(OC)cnc34)c(F)c2)c(=O)n(-c2ccc(F)cc2)c1C [Compound 329, 5-ethenyl-N-[3-fluoro-4-[(7-methoxy-1,5-naphthyridin-4-yl)oxy]phenyl]-1-(4-fluorophenyl)-4,6-dimethyl-2-oxopyridine-3-carboxamide]"
